# Data reported in US6635265B1, “Materials and methods useful for the control of insect larvae” (University of Florida Research Foundation, Inc., priority 1999, dated 2003).
# Legend:
# [1] = tested on: mosquito larvae; experiment: Feeding TMOF and its analogue peptides to mosquito larvae (LD50); type: in vivo, Aedes aegypti; details: 100 μl microtiter plates, 7 days, diet of autoclaved yeast (1 mg/ml)
# Source text: TMOF can traverse the gut epithelium, enter the hemolymph and bind a gut receptor (Borovsky, D. and F. Mahmood (1995) “Feeding the mosquito Aedes aegypti with TMOF and its analogs; effect on trypsin biosynthesis and egg development,” Regulatory Peptides 57:273-281.; Borovsky, D., C. A. Powell, J. K. Nayar, J. E. Blalock, and T. K. Hayes (1994) “Characterization and localization of mosquito-gut receptors for trypsin modulating oostatic factor using complementary peptide immunochemistry” FASEB J. 8:350-355.). […] This characteristic permits testing of TMOF and its analogs by feeding them to mosquito and other pest larvae. To determine whether truncated TMOF peptides have an effect on larval growth and development, a series of peptides were synthesized and tested by feeding them to mosquito larvae at concentrations of 0.5 to 5.0 mg/ml (Table 1). Individual, newly hatched Aedes aegypti larvae were maintained in separate microtiter wells on a diet of autoclaved yeast (1 mg/ml). The diet was supplemented with TMOF peptides (Table 1). An identical number of larvae which were maintained on yeast served as a control. […] All control groups survived and larval growth and development was normal. Since larvae swallow only a small portion of the yeast particles that adsorbed the peptides, it is assumed that approximately 1 to 20 ng are taken orally at the high concentrations.
# [2] = tested on: first instar H. virescens larvae; experiment: Feeding of first instar H. virescens on TMOF analogs for 14 days; type: in vivo, Heliothis virescens; details: first instar larvae fed individually 1.6 µg of TMOF analogs for 14 days
# [3] = tested on: fourth instar Heliothis virescens; experiment: Feeding TMOF analogs to fourth instar H. virescens: larval weight; type: in vivo; details: for larval weight and trypsin biosynthesis (in words): fourth instar larvae fed TMOF analog peptides for 5 days; for Weight Gain / Weight mg ± S.E.M. End: fourth instar larvae fed synthetic food and 0.8 mg of TMOF analogs for 5 days
# Experimental: In both cases a reduction in weight gain and trypsin inhibition was noted (Tables 3 and 4).
# (§1) Larvae were fed for 5 to 14 days and larval weight and trypsin activity were measured at the end of the experimental periods. […] When first instar larvae were fed for 14 days on analogs 15 and 16 (Table 4), an 18% and 26% reduction in weight was observed.
# [4] = tested on: trypsin biosynthesis; experiment: Feeding TMOF analogs to fourth instar H. virescens: gut trypsin biosynthesis ([3H]DFP); type: in vivo, Heliothis virescens; details: guts of fourth instar larvae after 5 days feeding on 0.8 mg of TMOF analogs
# Experimental: as §1
# [5] = tested on: trypsin biosynthesis; experiment: Injecting TMOF-R analogues into second instar Heliothis virescens: trypsin biosynthesis (BApNA); type: in vivo; details: second instar larvae, 24 hours after injection
# Experimental: TMOF analogues (5 to 8 amino acids in length, and polymers of these analogues) in which Arg was added at the C-terminus were evaluated to determine their effect on larval growth and development. A series of analogues were synthesized and tested by feeding them to mosquito larvae at concentrations of (0.5 to 5.0 mg/ml; Table 4). Concentrations of 2.0 to 0.065 mg/ml were used to feed mosquito larvae and calculate the Lethal Dose at 50% mortality (LD50; Table 4) of the TMOF analogues. […] In both cases larval death and trypsin biosynthesis inhibition was noted (Table 4 and 5). […] The advantage of using short analogues connected by Arg is that they can be digested in the gut into short TMOF analogues that can penetrate the midgut much faster than longer analogues.
# Individual second instar larvae of H. virescens were injected with TMOF-R analogues (10 to 0.25 μg per larva) and maintained in separate plastic cups on artificial diet. Twenty-four hours after the injections 3 groups of larvae (3 per group) were assayed for trypsin biosynthesis using BApNA (trypsin specific substrate; Table 5).
# [6] = tested on: first instar larvae S. exigua; experiment: Inhibition of Spodoptera exigua larval growth by feeding of TMOF; type: in vivo
# Experimental: The x-axis represents the TMOF concentration and the y-axis represents percentage of growth inhibition.
# Individual, first instar larvae S. exigua were maintained in separate petri dishes and were fed on artificial diet blocks of 50 mg on which different concentrations of TMOF (0 to 100 μg) were adsorbed. Larvae were fed for 6 days and larval length was measured every 24 hours and compared with controls that were not fed TMOF. Each experiment was repeated 10 times.
substance,measurement,setting,value
YDA (TMOF peptide) [36],LD50 mM ± S.E.M.,[1],3 1.6 ± 0.13 mM
YDAAP (TMOF peptide) [37],Number of Dead Larvae,[2],0
same,Weight (mg) ± S.E.M.,[2],133 ± 7 mg
same,Weight Reduction (%) ± S.E.M.,[2],18 ± 1%
same,Weight Reduction (%) ± S.E.M.,[2]; listed as 15,18%
same,larval weight and trypsin biosynthesis (in words),[3],Reductions in larval weight and trypsin biosynthesis were observed
same,Weight Gain,[3],179 mg
same,Weight mg ± S.E.M. End,[3],217 ± 9.5 mg
same,LD50 mM ± S.E.M.,[1],3 1.0 ± 0.18 mM
same,Inhibition (% ± S.E.M.) of trypsin biosynthesis,[4],17 ± 1.6%
same,Trypsin μg ± S.E.M.,[4],2.1 ± 0.2 µg
YDF (TMOF peptide) [38],LD50 mM ± S.E.M.,[1],3 0.97 ± 0.11 mM
YDFAP (TMOF peptide) [39],Number of Dead Larvae,[2],1
same,Weight (mg) ± S.E.M.,[2],121 ± 7 mg
same,Weight Reduction (%) ± S.E.M.,[2],26 ± 1.5%
same,Weight Gain,[3],164 mg
same,Weight mg ± S.E.M. End,[3],201 ± 12 mg
same,LD50 mM ± S.E.M.,[1],3 0.74 ± 0.13 mM
same,Inhibition (% ± S.E.M.) of trypsin biosynthesis,[4],19 ± 1.5%
same,Trypsin μg ± S.E.M.,[4],2.1 ± 0.2 µg
YDG (TMOF peptide) [40],LD50 mM ± S.E.M.,[1],3 0.95 ± 0.11 mM
YDLAP (TMOF peptide) [41],LD50 mM ± S.E.M.,[1],3 0.6 ± 0.05 mM
YDP (TMOF peptide) [42],Number of Dead Larvae,[2],0
same,Weight (mg) ± S.E.M.,[2],157 ± 10 mg
same,Weight Reduction (%) ± S.E.M.,[2],4 ± 0.2%
same,Weight Gain,[3],186.3 mg
same,Weight mg ± S.E.M. End,[3],223.4 ± 16 mg
same,LD50 mM ± S.E.M.,[1],5 2.3 ± 0.4 mM
same,Inhibition (% ± S.E.M.) of trypsin biosynthesis,[4],19 ± 3.2%
same,Trypsin μg ± S.E.M.,[4],2.1 ± 0.3 µg
YDPAA (TMOF peptide) [55],LD50 mM ± S.E.M.,[1],3 1.6 ± 0.13 mM
YDPAF (TMOF peptide) [44],LD50 mM ± S.E.M.,[1],3 0.33 ± 0.2 mM
YDPAFR (TMOF-R analogue peptide) [58],Inhibition (% ± S.E.M.) of trypsin biosynthesis,[5]; 10 μg/injection,0 ± 0%
YDPAL (TMOF peptide) [45],LD50 mM ± S.E.M.,[1],3 0.52 ± 0.03 mM
YDPAP6 (YDPAPPPPPP; listed as Aedes aegypti) [reference compound],larval growth (larval length) compared with controls,[6]; first instar S. exigua fed TMOF (0 to 100 μg) adsorbed on 50 mg artificial diet blocks for 6 days,did not grow as fast as the controls
same,amount of TMOF fed at which maximum growth inhibition occurred,"[6]; first instar S. exigua, 50 mg diet blocks, 6 days",100 µg
same,Inhibition (% ± S.E.M.) of trypsin biosynthesis,[5]; 0.25 μg/injection,19.5 ± 0.7%
same,Inhibition (% ± S.E.M.) of trypsin biosynthesis,[5]; 0.5 μg/injection,11 ± 1%
same,Inhibition (% ± S.E.M.) of trypsin biosynthesis,[5]; 1 μg/injection,25 ± 2%
same,Inhibition (% ± S.E.M.) of trypsin biosynthesis,[5]; 10 μg/injection,56%
same,LD50 mM ± S.E.M.,[1],3 0.2 ± 0.02 mM
YDPAP (TMOF peptide) [11],LD50 mM ± S.E.M.,[1],3 1.64 ± 0.03 mM
YDPAPR (TMOF-R analogue peptide) [57],Inhibition (% ± S.E.M.) of trypsin biosynthesis,[5]; 0.25 μg/injection,11 ± 1%
same,Inhibition (% ± S.E.M.) of trypsin biosynthesis,[5]; 0.5 μg/injection,14 ± 1%
same,Inhibition (% ± S.E.M.) of trypsin biosynthesis,[5]; 1 μg/injection,31.5 ± 2%
same,Inhibition (% ± S.E.M.) of trypsin biosynthesis,[5]; 10 μg/injection,53 ± 25%
YDPAR (TMOF-R analogue peptide) [59],Inhibition (% ± S.E.M.) of trypsin biosynthesis,[5]; 0.5 μg/injection,1 ± 0.07%
same,Inhibition (% ± S.E.M.) of trypsin biosynthesis,[5]; 1 μg/injection,39 ± 2%
same,Inhibition (% ± S.E.M.) of trypsin biosynthesis,[5]; 10 μg/injection,33.5 ± 9%
YDPFP (TMOF peptide) [47],LD50 mM ± S.E.M.,[1],4 1.7 ± 0.4 mM
YDPGP (TMOF peptide) [48],Number of Dead Larvae,[2],2
same,Weight (mg) ± S.E.M.,[2],153 ± 10 mg
same,Weight Reduction (%) ± S.E.M.,[2],6 ± 0.4%
same,Weight Reduction (%) ± S.E.M.,[2]; listed as 16,26%
same,larval weight and trypsin biosynthesis (in words),[3],Reductions in larval weight and trypsin biosynthesis were observed
same,Weight Gain,[3],163.1 mg
same,Weight mg ± S.E.M. End,[3],199.8 ± 11 mg
same,LD50 mM ± S.E.M.,[1],5 1.1 ± 0.18 mM
same,Inhibition (% ± S.E.M.) of trypsin biosynthesis,[4],17 ± 1%
same,Trypsin μg ± S.E.M.,[4],2.1 ± 0.1 µg
YDPLP (TMOF peptide) [49],LD50 mM ± S.E.M.,[1],3 1.5 ± 0.04 mM
YEPAP (TMOF peptide) [50],LD50 mM ± S.E.M.,[1],3 0.35 ± 0.02 mM
YFPAP (TMOF peptide) [51],LD50 mM ± S.E.M.,[1],3 0.64 ± 0.03 mM
YNPAP (TMOF peptide) [52],LD50 mM ± S.E.M.,[1],3 0.55 ± 0.03 mM
YSF (TMOF peptide) [53],LD50 mM ± S.E.M.,[1],3 1.08 ± 0.12 mM
YSPAP (TMOF peptide) [54],Number of Dead Larvae,[2],0
same,Weight (mg) ± S.E.M.,[2],168 ± 11 mg
same,Weight Reduction (%) ± S.E.M.,[2],0%
same,larval weight and trypsin biosynthesis (in words),[3],Reductions in larval weight and trypsin biosynthesis were observed
same,Weight Gain,[3],151 mg
same,Weight mg ± S.E.M. End,[3],188 ± 10.6 mg
same,LD50 mM ± S.E.M.,[1],3 1.4 ± 0.03 mM
same,Inhibition (% ± S.E.M.) of trypsin biosynthesis,[4],19 ± 2%
same,Trypsin μg ± S.E.M.,[4],2.0 ± 0.2 µg
